Measured values taken from patent publication US20050214384A1, “Chromium compositions and methods for using the same for inhibiting drug-induced insulin resistance” (priority 2002, published 2005).
Where two headings read alike, the source gives them in different places.

Tests used:
rats [1] = details: oral CrCl3; cited from earlier work
rats [2] = details: cited from earlier work
[3] = test system: subjects taking statin drugs; assay: Clinical trial of chromium picolinate on statin-induced insulin resistance (Example 1); format: in vivo, human; details: 400 μg chromium, one capsule a day orally, approximately six months, versus statin drug without chromium supplementation
Procedure: The effect of a chromium complex in inhibiting drug-induced insulin resistance is evaluated. Specifically, the effects of chromium picolinate on insulin sensitivity and vascular reactivity in subjects taking statin drugs are evaluated.
A clinical trial is initiated which includes approximately 80 male and female subjects between the ages of 35 and 65. The subject population is characterized as individuals suffering from moderate hypercholesterolemia and moderate high blood pressure. All subjects have been diagnosed with hypercholesterolemia. LDLC based on 75th percentile (>140-165 mg/dL) and HDL-C: <30 mg/dL. […]
Study visits are scheduled at the start of the study to record baseline information on the subjects and every two weeks thereafter. The following physiological conditions are measured prior to administration of the supplement as a baseline and at regular intervals during the course of the study: Glycated hemoglobin, fasting insulin, fasting plasma glucose levels, total cholesterol, triglycerides, LDL, HDL, urinalysis (routine), CBC, and serum chemistry, as well as blood pressure and body weight. In addition, insulin sensitivity is measured according to the euglycemic-hyperinsulinemic glucose clamp technique specified by R. A. DeFronzo et al. Glucose Clamp Technique: A Method for Quantifying Insulin Secretion and Resistance, 237 Am. […]

CC(=O)Oc1ccccc1C(=O)O [aspirin]
effect on chromium absorption (rats [1]): facilitated

[Cl][Cr]([Cl])[Cl] [chromium chloride]
toxic effects (rats [2]; levels several thousand times the upper limit of the ESADDI for chromium for humans (based on body weight)): without toxic effects

chromium picolinate
toxic effects (rats [2]; rat, in vivo): without toxic effects | incidence of drug-induced insulin resistance [3]: lower incidence of drug-induced insulin resistance
